Patent EP4722207A1, “OXOISOINDOLINYL-SUBSTITUTED TETRAHYDROPYRIMIDINEDIONE DERIVATIVE AND USE THEREOF” (Gluetacs Therapeutics (Shanghai) Co., Ltd., priority 2023, dated 2024)

Assays:
Type in all cases: cell-based
Conditions in all cases: compounds at 50 nM and 500 nM, 24 hours
[1] = molecular target: T1, WEE1 (Homo sapiens, UniProt P30291+Q96SW2); test: Western-blot assay, substrate protein degradation in hPBMCs: WEE1
T1 construct: effects of the compounds of the present disclosure on the expression of target proteins in cells; endogenous in cells; host or cells: human PBMCs (hPBMCs)

[2] = molecular target: T2, IKZF1 (Homo sapiens, UniProt Q13422+Q96SW2); test: Western-blot assay, substrate protein degradation in hPBMCs: IKZF1
T2 construct: effects of the compounds of the present disclosure on the expression of target proteins in cells; endogenous in cells; host or cells: human PBMCs (hPBMCs)

[3] = molecular target: T3, IKZF2 (Homo sapiens, UniProt Q96SW2+Q9UKS7); test: Western-blot assay, substrate protein degradation in hPBMCs: IKZF2
T3 construct: effects of the compounds of the present disclosure on the expression of target proteins in cells; endogenous in cells; host or cells: human PBMCs (hPBMCs)

[4] = molecular target: T4, IKZF3 (Homo sapiens, UniProt Q96SW2+Q9UKT9); test: Western-blot assay, substrate protein degradation in hPBMCs: IKZF3
T4 construct: effects of the compounds of the present disclosure on the expression of target proteins in cells; endogenous in cells; host or cells: human PBMCs (hPBMCs)

[5] = molecular target: T5, CK1α (Homo sapiens, UniProt P48729+Q96SW2); test: Western-blot assay, substrate protein degradation in hPBMCs: CK1α
T5 construct: effects of the compounds of the present disclosure on the expression of target proteins in cells; endogenous in cells; host or cells: human PBMCs (hPBMCs)

[6] = molecular target: T6, GSPT1 (Homo sapiens, UniProt P15170+Q96SW2); test: Western-blot assay, substrate protein degradation in hPBMCs: GSPT1
T6 construct: effects of the compounds of the present disclosure on the expression of target proteins in cells; endogenous in cells; host or cells: human PBMCs (hPBMCs)
T6 sequence (P15170 whole entry): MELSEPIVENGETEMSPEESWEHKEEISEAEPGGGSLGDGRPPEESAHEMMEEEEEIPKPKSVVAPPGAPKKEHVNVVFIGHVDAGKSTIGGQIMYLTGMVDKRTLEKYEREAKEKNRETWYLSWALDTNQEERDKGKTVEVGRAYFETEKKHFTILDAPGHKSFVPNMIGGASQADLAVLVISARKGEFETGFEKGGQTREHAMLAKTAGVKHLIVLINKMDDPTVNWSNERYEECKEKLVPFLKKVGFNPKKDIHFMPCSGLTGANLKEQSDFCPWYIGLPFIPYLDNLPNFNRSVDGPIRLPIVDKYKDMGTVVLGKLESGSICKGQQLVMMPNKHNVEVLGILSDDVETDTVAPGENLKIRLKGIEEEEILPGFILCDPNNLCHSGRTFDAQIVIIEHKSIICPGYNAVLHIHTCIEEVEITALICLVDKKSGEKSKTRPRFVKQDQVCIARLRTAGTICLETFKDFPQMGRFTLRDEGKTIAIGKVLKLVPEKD
T6 sequence (Q96SW2 whole entry): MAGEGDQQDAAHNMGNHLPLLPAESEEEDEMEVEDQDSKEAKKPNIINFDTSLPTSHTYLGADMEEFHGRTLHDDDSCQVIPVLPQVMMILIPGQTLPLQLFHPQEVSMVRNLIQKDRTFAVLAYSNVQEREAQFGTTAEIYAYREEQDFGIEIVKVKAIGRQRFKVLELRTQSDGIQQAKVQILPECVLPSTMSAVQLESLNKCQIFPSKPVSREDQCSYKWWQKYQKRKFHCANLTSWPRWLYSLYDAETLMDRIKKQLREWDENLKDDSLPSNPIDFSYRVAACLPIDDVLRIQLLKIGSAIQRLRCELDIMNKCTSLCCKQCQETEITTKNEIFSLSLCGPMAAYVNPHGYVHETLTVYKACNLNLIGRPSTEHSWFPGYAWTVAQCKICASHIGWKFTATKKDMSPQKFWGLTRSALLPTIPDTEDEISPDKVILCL
T6 sequence (Q16531 whole entry partner): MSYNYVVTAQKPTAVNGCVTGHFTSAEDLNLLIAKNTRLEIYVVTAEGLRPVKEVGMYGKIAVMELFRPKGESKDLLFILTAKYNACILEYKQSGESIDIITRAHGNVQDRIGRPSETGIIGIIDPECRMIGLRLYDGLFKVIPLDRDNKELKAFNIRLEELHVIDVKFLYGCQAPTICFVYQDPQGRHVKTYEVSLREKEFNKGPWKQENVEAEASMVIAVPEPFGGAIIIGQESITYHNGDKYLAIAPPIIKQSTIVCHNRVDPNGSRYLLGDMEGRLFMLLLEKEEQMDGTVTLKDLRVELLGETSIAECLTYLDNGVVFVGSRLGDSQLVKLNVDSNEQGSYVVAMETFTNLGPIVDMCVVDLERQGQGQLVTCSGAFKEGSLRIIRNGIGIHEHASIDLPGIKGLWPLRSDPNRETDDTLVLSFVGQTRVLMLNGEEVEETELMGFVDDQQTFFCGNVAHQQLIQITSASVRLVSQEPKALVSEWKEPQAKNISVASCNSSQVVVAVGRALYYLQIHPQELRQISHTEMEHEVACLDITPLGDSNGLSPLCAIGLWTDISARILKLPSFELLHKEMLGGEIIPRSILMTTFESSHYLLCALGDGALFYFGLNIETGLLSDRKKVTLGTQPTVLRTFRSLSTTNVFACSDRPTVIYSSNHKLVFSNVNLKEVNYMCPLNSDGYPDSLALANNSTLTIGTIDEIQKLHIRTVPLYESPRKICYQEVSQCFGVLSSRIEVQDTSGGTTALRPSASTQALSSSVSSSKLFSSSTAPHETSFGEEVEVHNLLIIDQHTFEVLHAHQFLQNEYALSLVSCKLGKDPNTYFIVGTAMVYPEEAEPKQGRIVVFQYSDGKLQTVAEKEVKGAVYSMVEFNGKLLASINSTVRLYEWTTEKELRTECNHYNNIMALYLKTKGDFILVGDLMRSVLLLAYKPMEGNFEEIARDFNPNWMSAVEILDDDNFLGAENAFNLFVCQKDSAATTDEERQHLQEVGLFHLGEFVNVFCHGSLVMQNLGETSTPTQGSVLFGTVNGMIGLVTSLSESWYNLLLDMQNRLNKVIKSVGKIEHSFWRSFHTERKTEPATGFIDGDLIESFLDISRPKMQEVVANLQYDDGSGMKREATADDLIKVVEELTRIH

T5 sequence (P48729 whole entry): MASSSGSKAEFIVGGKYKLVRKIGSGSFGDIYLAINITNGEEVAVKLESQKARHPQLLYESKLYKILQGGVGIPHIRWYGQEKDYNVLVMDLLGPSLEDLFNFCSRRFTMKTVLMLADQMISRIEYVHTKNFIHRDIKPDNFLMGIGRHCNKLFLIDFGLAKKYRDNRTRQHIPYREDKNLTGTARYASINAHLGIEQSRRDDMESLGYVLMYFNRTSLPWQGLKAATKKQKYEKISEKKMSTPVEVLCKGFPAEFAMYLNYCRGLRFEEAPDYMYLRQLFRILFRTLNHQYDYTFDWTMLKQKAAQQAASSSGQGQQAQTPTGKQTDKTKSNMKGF
T5 sequence (Q96SW2 whole entry): as the sequence (Q96SW2 whole entry) above
T5 sequence (Q16531 whole entry partner): as the sequence (Q16531 whole entry partner) above
T4 sequence (Q9UKT9 whole entry): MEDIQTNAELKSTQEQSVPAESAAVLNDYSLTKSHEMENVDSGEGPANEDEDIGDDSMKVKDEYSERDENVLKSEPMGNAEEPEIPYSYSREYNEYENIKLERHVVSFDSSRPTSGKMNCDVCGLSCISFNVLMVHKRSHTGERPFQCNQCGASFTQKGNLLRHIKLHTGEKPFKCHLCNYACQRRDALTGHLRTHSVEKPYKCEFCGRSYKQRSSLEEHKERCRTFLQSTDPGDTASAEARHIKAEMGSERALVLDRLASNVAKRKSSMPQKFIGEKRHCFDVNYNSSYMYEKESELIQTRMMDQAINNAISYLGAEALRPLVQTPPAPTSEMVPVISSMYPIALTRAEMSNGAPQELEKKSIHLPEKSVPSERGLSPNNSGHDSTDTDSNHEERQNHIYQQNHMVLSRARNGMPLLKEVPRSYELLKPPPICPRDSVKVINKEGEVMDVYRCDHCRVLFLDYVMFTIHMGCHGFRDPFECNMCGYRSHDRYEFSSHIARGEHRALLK
T4 sequence (Q96SW2 whole entry): as the sequence (Q96SW2 whole entry) above
T4 sequence (Q16531 whole entry partner): as the sequence (Q16531 whole entry partner) above
T2 sequence (Q13422 whole entry): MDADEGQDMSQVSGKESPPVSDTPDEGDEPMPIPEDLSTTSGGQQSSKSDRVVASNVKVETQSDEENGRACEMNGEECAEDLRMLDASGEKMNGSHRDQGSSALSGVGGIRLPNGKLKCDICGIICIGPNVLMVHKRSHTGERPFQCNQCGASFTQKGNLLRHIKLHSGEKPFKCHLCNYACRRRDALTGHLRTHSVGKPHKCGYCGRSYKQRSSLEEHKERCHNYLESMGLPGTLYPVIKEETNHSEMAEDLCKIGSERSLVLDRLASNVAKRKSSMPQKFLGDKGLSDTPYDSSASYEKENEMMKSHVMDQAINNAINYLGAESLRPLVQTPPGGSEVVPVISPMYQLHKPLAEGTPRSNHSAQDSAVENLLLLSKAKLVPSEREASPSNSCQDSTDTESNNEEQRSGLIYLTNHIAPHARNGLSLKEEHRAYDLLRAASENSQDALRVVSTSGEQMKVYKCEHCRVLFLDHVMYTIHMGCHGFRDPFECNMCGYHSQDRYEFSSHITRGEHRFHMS
T2 sequence (Q96SW2 whole entry): as the sequence (Q96SW2 whole entry) above
T2 sequence (Q16531 whole entry partner): as the sequence (Q16531 whole entry partner) above
T3 sequence (Q9UKS7 whole entry): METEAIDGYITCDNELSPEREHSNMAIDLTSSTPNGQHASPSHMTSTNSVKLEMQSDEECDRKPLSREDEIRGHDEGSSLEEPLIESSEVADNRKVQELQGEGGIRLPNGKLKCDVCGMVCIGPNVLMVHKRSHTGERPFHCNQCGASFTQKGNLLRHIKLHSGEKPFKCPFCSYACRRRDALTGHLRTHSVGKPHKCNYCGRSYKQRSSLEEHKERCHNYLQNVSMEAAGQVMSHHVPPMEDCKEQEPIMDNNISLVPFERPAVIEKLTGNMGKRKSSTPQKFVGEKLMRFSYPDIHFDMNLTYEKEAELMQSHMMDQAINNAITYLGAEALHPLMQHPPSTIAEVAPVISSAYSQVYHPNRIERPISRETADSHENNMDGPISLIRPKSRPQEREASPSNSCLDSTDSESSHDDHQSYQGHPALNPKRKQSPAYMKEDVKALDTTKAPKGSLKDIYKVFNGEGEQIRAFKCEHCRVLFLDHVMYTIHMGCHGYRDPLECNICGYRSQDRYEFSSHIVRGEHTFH
T3 sequence (Q96SW2 whole entry): as the sequence (Q96SW2 whole entry) above
T3 sequence (Q16531 whole entry partner): as the sequence (Q16531 whole entry partner) above

SMILES	WEE1 substrate protein remaining % [1]	IKZF1 substrate protein remaining % [2]	IKZF2 substrate protein remaining % [3]	IKZF3 substrate protein remaining % [4]	CK1α substrate protein remaining % [5]	GSPT1 substrate protein remaining % [6]
O=C1CCN(N2C(=O)c3ccc(CN4CCN(c5ccncc5)CC4)cc3C2=O)C(=O)N1 [GT-07073, 2-(2,4-dioxotetrahydropyrimidin-1(2H)-yl)-5-((4-(pyridin-4-yl)piperazin-1-yl)methyl)isoindoline-1,3-dione]	A ("A" is defined as 0% ≤ substrate protein remaining % ≤ 80%)	B ("B" is defined as 80%< substrate protein remaining %≤ 100%)	B ("B" is defined as 80%< substrate protein remaining %≤ 100%)	B ("B" is defined as 80%< substrate protein remaining %≤ 100%)	B ("B" is defined as 80%< substrate protein remaining %≤ 100%)	B ("B" is defined as 80%< substrate protein remaining %≤ 100%)
O=C1CCN(N2Cc3cc(CN4CCN(c5cnccn5)CC4)ccc3C2=O)C(=O)N1 [GT-07160, 1-(1-oxo-5-((4-(pyrazin-2-yl)piperazin-1-yl)methyl)isoindolin-2-yl)dihydropyrimidine-2,4(1H,3H)-dione]	B ("B" is defined as 80%< substrate protein remaining %≤ 100%)	B ("B" is defined as 80%< substrate protein remaining %≤ 100%)	A ("A" is defined as 0% ≤ substrate protein remaining % ≤ 80%)	B ("B" is defined as 80%< substrate protein remaining %≤ 100%)	A ("A" is defined as 0% ≤ substrate protein remaining % ≤ 80%)	A ("A" is defined as 0% ≤ substrate protein remaining % ≤ 80%)
Cc1cc(N2CCN(Cc3ccc4c(c3)C(=O)N(N3CCC(=O)NC3=O)C4=O)CC2)ccn1 [GT-07161, 2-(2,4-dioxotetrahydropyrimidin-1(2H)-yl)-5-((4-(2-methylpyridin-4-yl)piperazin-1-yl)methyl)isoindoline-1,3-dione]	B ("B" is defined as 80%< substrate protein remaining %≤ 100%)	B ("B" is defined as 80%< substrate protein remaining %≤ 100%)	A ("A" is defined as 0% ≤ substrate protein remaining % ≤ 80%)	B ("B" is defined as 80%< substrate protein remaining %≤ 100%)	B ("B" is defined as 80%< substrate protein remaining %≤ 100%)	A ("A" is defined as 0% ≤ substrate protein remaining % ≤ 80%)
O=C1CCN(N2C(=O)c3ccc(CN4CCN(c5nccc(F)c5F)CC4)cc3C2=O)C(=O)N1 [GT-07162, 5-((4-(3,4-difluoropyridin-2-yl)piperazin-1-yl)methyl)-2-(2,4-dioxotetrahydropyrimidin-1(2H)-yl)isoindoline-1,3-dione]	B ("B" is defined as 80%< substrate protein remaining %≤ 100%)	B ("B" is defined as 80%< substrate protein remaining %≤ 100%)	A ("A" is defined as 0% ≤ substrate protein remaining % ≤ 80%)	B ("B" is defined as 80%< substrate protein remaining %≤ 100%)	A ("A" is defined as 0% ≤ substrate protein remaining % ≤ 80%)	A ("A" is defined as 0% ≤ substrate protein remaining % ≤ 80%)
O=C1CCN(N2C(=O)c3ccc(CN4CCN(c5ccncc5Br)CC4)cc3C2=O)C(=O)N1 [GT-07163, 5-((4-(3-bromopyridin-4-yl)piperazin-1-yl)methyl)-2-(2,4-dioxotetrahydropyrimidin-1(2H)-yl)isoindoline-1,3-dione]	B ("B" is defined as 80%< substrate protein remaining %≤ 100%)	B ("B" is defined as 80%< substrate protein remaining %≤ 100%)	A ("A" is defined as 0% ≤ substrate protein remaining % ≤ 80%)	B ("B" is defined as 80%< substrate protein remaining %≤ 100%)	B ("B" is defined as 80%< substrate protein remaining %≤ 100%)	A ("A" is defined as 0% ≤ substrate protein remaining % ≤ 80%)
O=C1CCN(N2C(=O)c3ccc(CN4CCN(c5ccncc5F)CC4)cc3C2=O)C(=O)N1 [GT-07164, 2-(2,4-dioxotetrahydropyrimidin-1(2H)-yl)-5-((4-(3-fluoropyridin-4-yl)piperazin-1-yl)methyl)isoindoline-1,3-dione]	B ("B" is defined as 80%< substrate protein remaining %≤ 100%)	B ("B" is defined as 80%< substrate protein remaining %≤ 100%)	A ("A" is defined as 0% ≤ substrate protein remaining % ≤ 80%)	B ("B" is defined as 80%< substrate protein remaining %≤ 100%)	B ("B" is defined as 80%< substrate protein remaining %≤ 100%)	A ("A" is defined as 0% ≤ substrate protein remaining % ≤ 80%)
O=C1CCN(N2C(=O)c3ccc(CN4CCN(c5ccncc5Cl)CC4)cc3C2=O)C(=O)N1 [GT-07165, 5-((4-(3-chloropyridin-4-yl)piperazin-1-yl)methyl)-2-(2,4-dioxotetrahydropyrimidin-1(2H)-yl)isoindoline-1,3-dione]	B ("B" is defined as 80%< substrate protein remaining %≤ 100%)	B ("B" is defined as 80%< substrate protein remaining %≤ 100%)	A ("A" is defined as 0% ≤ substrate protein remaining % ≤ 80%)	B ("B" is defined as 80%< substrate protein remaining %≤ 100%)	B ("B" is defined as 80%< substrate protein remaining %≤ 100%)	A ("A" is defined as 0% ≤ substrate protein remaining % ≤ 80%)
O=C1CCN(N2C(=O)c3ccc(CN4CCN(c5ccnc(Cl)c5F)CC4)cc3C2=O)C(=O)N1 [GT-07166, 5-((4-(2-chloro-3-fluoropyridin-4-yl)piperazin-1-yl)methyl)-2-(2,4-dioxotetrahydropyrimidin-1(2H)-yl)isoindoline-1,3-dione]	B ("B" is defined as 80%< substrate protein remaining %≤ 100%)	B ("B" is defined as 80%< substrate protein remaining %≤ 100%)	A ("A" is defined as 0% ≤ substrate protein remaining % ≤ 80%)	B ("B" is defined as 80%< substrate protein remaining %≤ 100%)	B ("B" is defined as 80%< substrate protein remaining %≤ 100%)	A ("A" is defined as 0% ≤ substrate protein remaining % ≤ 80%)
O=C1CCN(N2C(=O)c3ccc(CN4CCN(c5ccnc(Br)c5F)CC4)cc3C2=O)C(=O)N1 [GT-07167, 5-((4-(2-bromo-3-fluoropyridin-4-yl)piperazin-1-yl)methyl)-2-(2,4-dioxotetrahydropyrimidin-1(2H)-yl)isoindoline-1,3-dione]	B ("B" is defined as 80%< substrate protein remaining %≤ 100%)	B ("B" is defined as 80%< substrate protein remaining %≤ 100%)	A ("A" is defined as 0% ≤ substrate protein remaining % ≤ 80%)	B ("B" is defined as 80%< substrate protein remaining %≤ 100%)	B ("B" is defined as 80%< substrate protein remaining %≤ 100%)	A ("A" is defined as 0% ≤ substrate protein remaining % ≤ 80%)
O=C1CCN(N2C(=O)c3ccc(CN4CCN(c5ccnc(Cl)c5Br)CC4)cc3C2=O)C(=O)N1 [GT-07168, 5-((4-(3-bromo-2-chloropyridin-4-yl)piperazin-1-yl)methyl)-2-(2,4-dioxotetrahydropyrimidin-1(2H)-yl)isoindoline-1,3-dione]	B ("B" is defined as 80%< substrate protein remaining %≤ 100%)	B ("B" is defined as 80%< substrate protein remaining %≤ 100%)	A ("A" is defined as 0% ≤ substrate protein remaining % ≤ 80%)	B ("B" is defined as 80%< substrate protein remaining %≤ 100%)	B ("B" is defined as 80%< substrate protein remaining %≤ 100%)	A ("A" is defined as 0% ≤ substrate protein remaining % ≤ 80%)
O=C1CCN(N2Cc3cc(CN4CCN(c5ccnc(Cl)c5Cl)CC4)ccc3C2=O)C(=O)N1 [GT-07169, 1-(5-((4-(2,3-dichloropyridin-4-yl)piperazin-1-yl)methyl)-1-oxoisoindolin-2-yl)dihydropyrimidine-2,4(1H,3H)-dione]	A ("A" is defined as 0% ≤ substrate protein remaining % ≤ 80%)	B ("B" is defined as 80%< substrate protein remaining %≤ 100%)	B ("B" is defined as 80%< substrate protein remaining %≤ 100%)	B ("B" is defined as 80%< substrate protein remaining %≤ 100%)	B ("B" is defined as 80%< substrate protein remaining %≤ 100%)	B ("B" is defined as 80%< substrate protein remaining %≤ 100%)
